# Test results: ChEMBL document CHEMBL2390863, “Synthesis and evaluation of 4-substituted coumarins as novel acetylcholinesterase inhibitors” (Eur J Med Chem, 2013)
# Tests used:
# Cholinesterase = Cholinesterase (Equus caballus, UniProt P81908); test: Inhibition of equine serum BChE using butylthiocholine iodide as substrate preincubated for 10 mins prior to substrate addition by Ellman's method
# Acetylcholinesterase = Acetylcholinesterase (Electrophorus electricus, UniProt O42275); test: Inhibition of electric eel AChE using acetylthiocholine iodide as substrate preincubated for 10 mins prior to substrate addition by Ellman's method
# Chain of Acetylcholinesterase (O42275 whole entry): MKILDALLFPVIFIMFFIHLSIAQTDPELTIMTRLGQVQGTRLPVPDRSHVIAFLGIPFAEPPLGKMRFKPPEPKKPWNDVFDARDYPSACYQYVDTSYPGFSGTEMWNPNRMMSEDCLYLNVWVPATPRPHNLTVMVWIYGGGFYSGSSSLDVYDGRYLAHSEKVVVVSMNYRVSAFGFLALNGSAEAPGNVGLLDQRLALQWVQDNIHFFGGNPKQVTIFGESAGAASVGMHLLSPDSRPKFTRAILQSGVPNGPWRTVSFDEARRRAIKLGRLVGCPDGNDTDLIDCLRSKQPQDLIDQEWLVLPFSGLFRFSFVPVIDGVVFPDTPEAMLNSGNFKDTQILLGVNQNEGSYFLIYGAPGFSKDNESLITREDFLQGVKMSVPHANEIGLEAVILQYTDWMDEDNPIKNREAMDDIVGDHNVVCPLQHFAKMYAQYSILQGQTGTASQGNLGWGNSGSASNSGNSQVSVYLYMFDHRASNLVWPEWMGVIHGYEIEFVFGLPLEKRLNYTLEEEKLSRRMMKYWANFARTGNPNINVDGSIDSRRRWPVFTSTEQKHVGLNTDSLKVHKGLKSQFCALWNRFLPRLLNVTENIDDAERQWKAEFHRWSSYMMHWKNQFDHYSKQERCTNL
# [1] = Selectivity ratio of IC50 for equine serum BChE to IC50 for electric eel AChE
# [2] = Antioxidant activity assessed as Fe2+ formation by FRAP assay; type: functional
# Chain of Cholinesterase (P81908 whole entry): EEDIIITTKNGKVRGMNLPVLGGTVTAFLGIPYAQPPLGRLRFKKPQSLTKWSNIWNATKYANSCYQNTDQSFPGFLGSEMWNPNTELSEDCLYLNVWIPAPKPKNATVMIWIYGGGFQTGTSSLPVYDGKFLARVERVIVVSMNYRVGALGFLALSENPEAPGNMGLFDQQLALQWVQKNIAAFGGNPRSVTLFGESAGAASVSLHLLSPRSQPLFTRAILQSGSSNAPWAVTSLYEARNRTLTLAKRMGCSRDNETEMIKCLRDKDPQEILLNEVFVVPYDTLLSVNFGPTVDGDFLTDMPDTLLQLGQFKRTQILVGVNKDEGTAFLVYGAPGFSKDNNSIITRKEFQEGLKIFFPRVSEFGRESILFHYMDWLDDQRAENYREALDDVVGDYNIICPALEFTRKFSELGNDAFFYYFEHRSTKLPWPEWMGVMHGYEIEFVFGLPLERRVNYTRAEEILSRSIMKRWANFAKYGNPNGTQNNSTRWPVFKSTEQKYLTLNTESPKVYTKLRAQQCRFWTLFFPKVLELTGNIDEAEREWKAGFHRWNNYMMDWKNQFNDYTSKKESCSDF
Structure (SMILES),IC50 (Cholinesterase) [µM],IC50 (Acetylcholinesterase) [µM],Ratio IC50 [1],Activity [2] [mmol/g]
O=C(CCCOc1cc(=O)oc2ccccc12)N1CCN(c2ccc(F)cc2)CC1,> 100,> 100,–,–
O=C(COc1cc(=O)oc2ccccc12)NC1CCN(Cc2ccccc2)CC1,45,1.2,37,–
O=C(COc1cc(=O)oc2ccccc12)N1CCC(O)(c2ccc(Br)cc2)CC1,> 100,> 100,–,–
O=C1O[C@H]([C@@H](O)CO)C(O)=C1O,–,–,–,2250
O=C(CCCOc1cc(=O)oc2ccccc12)N1CCC(O)(c2ccc(Cl)cc2)CC1,> 100,> 100,–,–
O=C(COc1cc(=O)oc2ccccc12)N1CCN(c2ccccc2)CC1,> 100,2.9,34,–
O=C(CCCOc1cc(=O)oc2ccccc12)N1CCC(O)(c2ccc(Br)cc2)CC1,> 100,> 100,–,–
O=C(COc1cc(=O)oc2ccccc12)N1CCC(O)(c2ccc(Cl)cc2)CC1,> 100,> 100,–,–
O=C(COc1cc(=O)oc2ccccc12)N1CCC(Cc2ccccc2)CC1,65,3.4,–,–
O=C(CCCOc1cc(=O)oc2ccccc12)NC1CCN(Cc2ccccc2)CC1,41,2.37,–,–
O=C(CCCOc1cc(=O)oc2ccccc12)N1CCN(c2ccccc2)CC1,> 100,> 100,–,–
O=C(CCCOc1cc(=O)oc2ccccc12)N1CCC(Cc2ccccc2)CC1,76,8,–,–
O=C(COc1cc(=O)oc2ccccc12)N1CCN(c2ccccc2O)CC1,> 100,21.2,–,840
O=C(COc1cc(=O)oc2ccccc12)N1CCN(c2ccc(F)cc2)CC1,76,2.1,34,–
O=C(COc1cc(=O)oc2ccccc12)N1CCN(c2ccc(Cl)c(Cl)c2)CC1,89,2.3,34,–
COc1ccc(CCNC(=O)CCCOc2cc(=O)oc3ccccc23)cc1OC,> 100,> 100,–,–
O=C(CCCOc1cc(=O)oc2ccccc12)N1CCN(c2ccc(Cl)c(Cl)c2)CC1,> 100,> 100,–,–
O=C(CCCOc1cc(=O)oc2ccccc12)N1CCN(c2ccccc2F)CC1,> 100,> 100,–,–
O=C(COc1cc(=O)oc2ccccc12)N1CCN(c2ccccc2F)CC1,> 100,12.1,–,–
O=C(CCCOc1cc(=O)oc2ccccc12)N1CCN(c2ccccc2O)CC1,> 100,> 100,–,770
